EC50 data for six compounds are collected here from US20150057253A1, “ALKYL DERIVATIVES AS SPHINGOSINE-1 PHOSPHATE RECEPTORS MODULATORS” (Allergan, Inc., priority 2013, published 2015).

This test has as its target T1, human S1P1 receptor (Homo sapiens, UniProt P21453).
T1 construct: expressed in transfected cells; membrane preparation
Description: GTP γ35S binding assay for S1P1 activity. The format is biochemical. Particulars: membranes of cells stably expressing the S1P1 receptor, test compounds 0.08 to 5,000 nM. On the procedure:
Compounds were synthesized and tested for S1P1 activity using the GTP γ^35S binding assay. These compounds may be assessed for their ability to activate or block activation of the human S1P1 receptor in cells stably expressing the S1P1 receptor.
GTP γ^35S binding was measured in the medium containing (mM) HEPES 25, pH 7.4, MgCl2 10, NaCl 100, dithiothreitol 0.5, digitonin 0.003%, 0.2 nM GTP γ^35S, and 5 μg membrane protein in a volume of 150 μl. Test compounds were included in the concentration range from 0.08 to 5,000 nM unless indicated otherwise. Membranes were incubated with 100 μM 5′-adenylylimidodiphosphate for 30 min, and subsequently with 10 μM GDP for 10 min on ice. Drug solutions and membrane were mixed, and then reactions were initiated by adding GTP γ^35S and continued for 30 min at 25° C. Reaction mixtures were filtered over Whatman GF/B filters under vacuum, and washed three times with 3 mL of ice-cold buffer (HEPES 25, pH7.4, MgCl2 10 and NaCl 100). Filters were dried and mixed with scintillant, and counted for ^35S activity using a β-counter. Agonist-induced GTP γ^35S binding was obtained by subtracting that in the absence of agonist. Binding data were analyzed using a non-linear regression method. In case of antagonist assay, the reaction mixture contained 10 nM […] in the presence of test antagonist at concentrations ranging from 0.08 to 5000 nM.
On the technique in general: GTPγS is a poorly hydrolysed GTP analogue; its binding reports G protein activation.

T1 sequence (P21453 whole entry): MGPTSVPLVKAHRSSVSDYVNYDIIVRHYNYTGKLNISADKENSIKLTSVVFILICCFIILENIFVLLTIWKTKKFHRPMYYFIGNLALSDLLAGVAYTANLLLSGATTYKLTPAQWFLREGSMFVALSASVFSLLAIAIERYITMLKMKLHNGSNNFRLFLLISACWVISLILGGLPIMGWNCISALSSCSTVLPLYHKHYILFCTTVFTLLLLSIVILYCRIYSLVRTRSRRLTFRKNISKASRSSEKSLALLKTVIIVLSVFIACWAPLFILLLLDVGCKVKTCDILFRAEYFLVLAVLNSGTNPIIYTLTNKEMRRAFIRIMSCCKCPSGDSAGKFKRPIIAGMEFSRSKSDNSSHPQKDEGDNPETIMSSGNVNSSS

`Cc1ccc(CC(CCCCc2ccc(CNCCC(=O)O)cc2)c2cccc(Cl)c2)cc1C` (stereo not drawn) [3-({4-[5-(3-Chlorophenyl)-6-(3,4-dimethylphenyl)hexyl]benzyl}amino)propanoic acid]: the EC50 (in general, the concentration that produces a half-maximal response) stood at 20.1 nM. With `Cc1ccc(CC(CCCCc2ccc(CNCCC(=O)O)cc2)c2cc(F)cc(F)c2)cc1C` (stereo not drawn) [3-({4-[5-(3,5-Difluorophenyl)-6-(3,4)-dimethylphenyl)hexyl]benzyl}amino)propanoic acid], a half-maximal effect (EC50) was put at 6.79 nM. The value for `Cc1ccc(CC(CCCCc2ccc(CNCCCP(=O)(O)O)cc2)c2cccc(Cl)c2)cc1C` (stereo not drawn) [[3-({4-[5-(3-Chlorophenyl)-6-(3,4-dimethylphenyl)hexyl]benzyl}amino)propyl]phosphonic acid] was 3.72 nM. The compound `Cc1ccc(CC(CCCc2ccc(CNCCC(=O)O)cc2)c2cccc(Cl)c2)cc1C` (stereo not drawn) [3-({4-[4-(3-Chlorophenyl)-5-(3,4-dimethylphenyl)pentyl]benzyl}amino)propanoic acid] displayed an EC50 of 142 nM. The value for `Cc1ccc(CC(CCCc2ccc(CNCCCP(=O)(O)O)cc2)c2cccc(Cl)c2)cc1C` (stereo not drawn) [[3-({4-[4-(3-Chlorophenyl)-5-(3,4-dimethylphenyl)pentyl]benzyl}amino)propyl]phosphonic acid] was 3.09 nM. With `Cc1ccc(CC(CCCCc2ccc(CNCCCP(=O)(O)O)cc2)c2cc(F)cc(F)c2)cc1C` (stereo not drawn) [[3-({4-[5-(3,5-Difluorophenyl)-6-(3,4-dimethylphenyl)hexyl]benzyl}amino)propyl]phosphonic acid] the figure was 5.09 nM.
